Assay results as given in patent EP0037495A1, “Pyrimidyl quinazolines, process for their preparation and pharmaceutical compositions containing them” (CASSELLA Aktiengesellschaft, priority 1980, dated 1981).

System: normotonen narkotisierten Ratte
Test: Blood pressure measurement in the normotensive anaesthetised rat
Assay type: in vivo
Conditions: mean; for WD min x̄ (Wirkungsdauer): time from onset of change until return to baseline
Protocol: 1. Blutdruckmessung an der normotonen narkotisierten Ratte
Männliche IVANOVAS-Ratten (300 - 340 g) des Stammes SIV 50 wurden durch Applikation von 66 mg/kg a-Chloralose (1,1 % Lösung, 0,6 ml/100 g) und 20 mg:kg Aprobarbital in die Schwanzvene narkotisiert. Die Trachea wurde kannuliert um die Spontanatmung zu erleichtern. Die Messung des Blutdruckes erfolgte blutig über einen in die Rechte A. carotis eingebundenen PE-Schlauch auf konventionelle Weise. Mittels eines Dreiwegehahnes konnte dieser PE-Schlauch zur i.a.-Applikation der Prüfsubstanzen benutzt werden, wobei jeweils ein Volumen von 0,1 ml injiziert wurde. Durch Nachspülen mit 0,9 % NaCl gelangten die Substanzen über die Vertebralarterie auch in Richtung Zentralnervensystem bevor die Verteilung im allgemeinen Kreislauf erfolgte.
Zahlenmäßig ausgewertet wurde die maximale systolische und diastolische Blutdrucksenkung sowie die maximale Änderung der Herzfrequenz. Als Wirkdauer galt die Zeit vom Eintritt der Veränderung bis zum Erreichen des Ausgangswertes.

SMILES: COc1cc2nc(N3CCN(c4c([N+](=O)[O-])c(=O)n(C)c(=O)n4C)CC3)nc(N)c2cc1OC [*]
- WD min x̄ (Wirkungsdauer) (dose 0.01 mg/kg i.a.): 36 min

SMILES: COc1cc2nc(N3CCN(C(=O)c4ccco4)CC3)nc(N)c2cc1OC [Prazosin]
- HF Δ s/min x̄ (maximal change of heart rate, dose 0.1 mg/kg i.a.): 0 s/min
- WD min x̄ (Wirkungsdauer) (dose 0.1 mg/kg i.a.): 60 min
